Test results reported in EP2272817A1, “PAI-1 INHIBITOR” (Institute of Medicinal Molecular Design, Inc., priority 2008, dated 2009).
Where two headings read alike, the source gives them in different places.

Columns and labels:
recombinant human PAI-1 [1] = target: T1, recombinant human PAI-1 (Homo sapiens, UniProt P05121); experiment: Test Example 2: Human PAI-1 Inhibitory Activity (pH 7.4 HEPES buffer, 10 minutes incubation with two-chain tPA); format: biochemical; parameters: purchased Molecular Innovations, Inc; conditions: read-out: Inhibition Rate of PAI-1 Activity (%)
T1 sequence (P05121 24-402): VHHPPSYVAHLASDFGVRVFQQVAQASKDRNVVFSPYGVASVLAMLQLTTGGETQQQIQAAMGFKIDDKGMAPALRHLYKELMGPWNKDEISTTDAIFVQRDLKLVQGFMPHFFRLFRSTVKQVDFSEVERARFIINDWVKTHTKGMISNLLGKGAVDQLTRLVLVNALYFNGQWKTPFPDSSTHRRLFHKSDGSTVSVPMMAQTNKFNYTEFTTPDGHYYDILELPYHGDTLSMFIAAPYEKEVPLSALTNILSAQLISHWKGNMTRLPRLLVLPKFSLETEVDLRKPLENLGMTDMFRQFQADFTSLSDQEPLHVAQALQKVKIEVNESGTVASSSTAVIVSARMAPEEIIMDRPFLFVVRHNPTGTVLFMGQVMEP
Method: 0.1 M HEPES, 0.1 M NaCl. 1 mM EDTA. 0.1 % Polyethylene glycol 8,000 (Hampton Research Corporation),
2 mM Dimethyldecylphoshine oxide [Apo-10] (Fluka Corporation)

recombinant rat PAI-1 = target: T2, recombinant rat PAI-1 (Rattus norvegicus, UniProt P20961); experiment: biochemical; conditions: read-out: Inhibition Rate of PAI-1 Activity (%)
T2 sequence (P20961 24-402): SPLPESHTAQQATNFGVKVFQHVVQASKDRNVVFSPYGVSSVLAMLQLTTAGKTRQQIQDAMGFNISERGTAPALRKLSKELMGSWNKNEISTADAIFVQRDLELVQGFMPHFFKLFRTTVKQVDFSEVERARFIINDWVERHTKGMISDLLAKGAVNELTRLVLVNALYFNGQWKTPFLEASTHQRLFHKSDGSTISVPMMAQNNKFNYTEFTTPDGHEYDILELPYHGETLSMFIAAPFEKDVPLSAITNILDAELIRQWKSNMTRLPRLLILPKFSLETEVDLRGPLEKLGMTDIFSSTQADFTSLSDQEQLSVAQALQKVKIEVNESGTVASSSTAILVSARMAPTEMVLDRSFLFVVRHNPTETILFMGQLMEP

recombinant human PAI-1 [2] = target: T1, recombinant human PAI-1; experiment: biochemical
recombinant human PAI-1 [3] = target: T1, recombinant human PAI-1; experiment: Test Example 4: Human PAI-1 Inhibitory Activity (amount of PAI-1 bound to plate-coated one-chain tPA, ELISA); format: biochemical; parameters: purchased Molecular Innovations, Inc; conditions: human PAI-1 bound to tPA, read-out: Inhibition Rate of PAI-1 Activity (%); for inhibition at 0.3 µM: Compound Concentration 0.3µM; for inhibition at 1 µM: Compound Concentration 1µM; for inhibition at 3 µM: Compound Concentration 3µM
Procedure, shortened: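 Compound (final 0.1 to 3.0 µM, 0.2% DMSO) preincubated 15 min on ice with recombinant human PAI-1 (50 ng/ml) in phosphate buffer pH 6.6, then 60 min at room temperature on one-chain tPA-coated plates. Bound PAI-1 detected by anti-PAI-1 antibody, AP-labelled secondary and p-nitrophenyl phosphate at 405 nm; quantified against PAI-1 standard curve, inhibition relative to compound-free PAI-1.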

Rat AV Shunt Model = experiment: Test Example 5: Anti-thrombotic Activity (Rat AV Shunt Model), thrombus weight; format: in vivo, Crlj: CD (SD) rats; conditions: orally for 4 days, male rats, n=5, average ± S.E., vehicle 72.7±2.7
Method: AV shunt model using 7-week old male Crlj: CD (SD) rats were prepared, and anti thrombotic activities when the compounds according to the present invention were administered orally were examined.
Required amount of the test compounds were weighed and suspended by adding 0.5 % CMC (carboxymethylcellulose)-Na solution little by little, and the solutions (10 mg/kg or 30 mg/kg solution) were prepared so that their final concentration became 2 mg/ml or 6 mg/ml using a graduated cylinder. 5 ml was prepared for 1 course.
To 7-week old Crlj: CD (SD) male rats, 5 ml/kg of vehicle (0.5 % CMC-Na solution) or 5 ml/kg of the administering solution of the test compound (10 mg/kg or 30 mg/kg) were administered orally for 4 days. The administration on the 4th day was carried out about 1 hour before the following perfusion start.
On the connected part where the silk thread was through, parafilm was wrapped around to avoid blood leakage. Rats were anesthetized with pentobarbital (50 mg/kg; intraperitoneally). Saline was filled in the above catheter, and each of the ends of the catheter was inserted in right carotid artery and […], respectively, and blood was circulated. 30 minutes later, the catheter was pinched with forceps to stop blood flow, and tube parts where the silk thread was through were cut and removed. The silk thread was carefully removed from the tubes, remaining wet weight was weighed after removing the liquid phase with filter paper, and further subtraction of the weight of the silk thread, gave the thrombus weight.
For the thrombus weight in each group, an average vale ± standard error (S.E.) was calculated. For the significance test between the vehicle administered group and the compound according to the present invention administered group, Dunnett's multiple comparison was carried out (significance level 5 %). For the test, the SAS System Release 8.2 (TS2MO) for Windows (Registered Trademark) (SAS Institute Inc.) and its coorperative system EXSAS Ver. 7.10 (Arm Systex Co. Ltd.) were employed.

[4] = read-out: Inhibition Rate of PAI-1 Activity (%), Compound Concentration 5µM
[5] = read-out: Inhibition Rate of PAI-1 Activity (%), Compound Concentration 10µM

| Structure (SMILES) | inhibition at 0.1 µM (recombinant human PAI-1 [1]) [%] | inhibition at 0.3 µM (recombinant human PAI-1 [1]) [%] | inhibition at 1 µM (recombinant human PAI-1 [1]) [%] | inhibition at 3 µM (recombinant human PAI-1 [1]) [%] | inhibition at 0.3 µM (recombinant rat PAI-1) [%] | inhibition at 1 µM (recombinant rat PAI-1) [%] | inhibition at 3 µM (recombinant rat PAI-1) [%] | inhibition at 10 µM (recombinant rat PAI-1) [%] | inhibition at 5 µM (recombinant human PAI-1 [2]; read-out: Inhibition Rate of PAI Activity (%), Compound Concentration 5µM) [%] | inhibition at 10 µM (recombinant human PAI-1 [2]; read-out: Inhibition Rate of PAI Activity (%), Compound Concentration 10µM) [%] | inhibition at 0.3 µM (recombinant human PAI-1 [3]) [%] | inhibition at 1 µM (recombinant human PAI-1 [3]) [%] | inhibition at 3 µM (recombinant human PAI-1 [3]) [%] | Thrombus Weight (Rat AV Shunt Model; Dose 10 mg/kg/day) [mg] | Thrombus Weight (Rat AV Shunt Model; Dose 30 mg/kg/day) [mg] | inhibition at 5 µM (recombinant human PAI-1 [2]; [4]) [%] | inhibition at 10 µM (recombinant human PAI-1 [2]; [5]) [%] |
| --- | --- | --- | --- | --- | --- | --- | --- | --- | --- | --- | --- | --- | --- | --- | --- | --- | --- |
| CC(C)(C)c1ccc(COc2ccc(-c3ccc(OC(F)(F)F)cc3)cc2CCC(=O)O)cc1 [Compound 5] | 2 | 13 | 34 | 90 | 5 | 15 | 52 | 93 | 87 | 95 | 9 | 23 | 67 | 57.5 ± 5.0 | – | – | – |
| CN(C(=O)C(=O)O)c1cc(-c2ccc(OC(F)(F)F)cc2)ccc1OCc1ccc(C(C)(C)C)cc1 [Compound 17] | – | – | – | – | – | – | – | – | – | – | – | – | – | – | 60.4 ± 3.8 | – | – |
| CC(C)(C)c1ccc(CN(C(=O)C(=O)O)c2ccc(-c3ccc(OC(F)(F)F)cc3)cc2)cc1 [Compound 129] | 1 | 3 | 19 | 86 | 2 | 14 | 46 | 90 | – | – | 5 | 15 | 19 | 56.7 ± 3.8 | – | 75 | 95 |
| CCN(CC)c1ccc(N(Cc2ccc(C(C)(C)C)cc2)C(=O)C(=O)O)c(-c2ccc(OC(F)(F)F)cc2)c1 [Compound 208] | 10 | 1 | 36 | 99 | 0 | 12 | 82 | 81 | – | – | 0 | 6 | 36 | – | – | 89 | 98 |
| CCCCC(c1ccc(C(C)(C)C)cc1)N(C(=O)C(=O)O)c1ccc(-c2ccc(OC(F)(F)F)cc2)cc1 (stereo not shown) [Compound 221] | 0 | 6 | 55 | > 99 | 10 | 37 | 89 | – | – | – | 0 | 13 | 38 | – | – | 80 | 86 |
| CCCCCOc1ccc(-c2ccc(OC(F)(F)F)cc2)cc1N(CCCCc1ccccc1)C(=O)C(=O)O [Compound 226] | 0 | 17 | 89 | 99 | 9 | 49 | 92 | > 99 | – | – | 11 | 26 | 65 | – | – | 85 | 92 |
